Source: patent publication US11753433B2, “Methods of synthesizing substituted purine compounds” (Epizyme, Inc., priority 2013, dated 2023)

Tests used:
Assay type in all cases: physicochemical
[1] = Equilibrium solubility in organic solvents; conditions: RT; for solubility at 24 h: organic solvent or mixture, thermodynamic from solid
Procedure: Approximately 10 mg of Form B was weighed into a 1-ml glass vial followed by addition of 0.5 ml relevant media. Each sample was continuously stirred using a magnetic stir bar at 25° C. for 24 h. The suspension was then filtered using a nylon membrane with a pore diameter of 0.22 μm. The filtrates were diluted for HPLC analysis and final pH was measured. The solid residue of each sample was collected for XRPD analysis. The solubility of Form B was also determined in commonly used organic solvents (diluents or HPLC mobile phase). The solubility data summarized in Table 10 indicates Form B is quite soluble in MeOH, EtOH, and IPA.

Solution photostability = experiment: Solution photostability
Procedure: Solution Photostability: Weighed ˜1 mg of Form B and dissolved in 3 solutions at different pHs (0.01 N HCl, 0.01 N NaOH and water). Methanol was added as a co-solvent to dissolve Form B in solutions (i.e., 10% (v/v) methanol in 0.01 N HCl, 20% (v/v) in water and 30% (v/v) in 0.01 N NaOH), the final concentration was 0.1 mg/mL. For each solution, 1 sample and 1 control covered in foil were put into the photo chamber for Vis study (2 vials total for each solution). Measure the concentration and monitor the degradation.

[2] = Slurry experiments using Form A and Form B (relative stability)
Procedure: The relative stability between Form A and Form B was investigated by slurry experiments in ACN (containing less than 0.3 wt % water), ACN/H2O (v/v, 3; 1), and H2O at room temperature and 50° C. In general, about 10-30 mg Form A was added to a 5-ml glass vial with 0.5 ml corresponding solvents to get suspensions at room temperature and 50° C., respectively. Then 10-30 mg Form B was added to the suspensions which were kept stirring for 24 h. The water activity was calculated using the UNIFAC model.

[3] = Equilibrium solubility in aqueous media; conditions: for solubility at 24 h: 25 °C, thermodynamic from solid; for Remaining Solid: XRPD
Procedure: Approximately 10 mg of Form B was weighed into a 1-ml glass vial followed by addition of 0.5 ml relevant media. Each sample was continuously stirred using a magnetic stir bar at 25° C. for 24 h. The suspension was then filtered using a nylon membrane with a pore diameter of 0.22 μm. The filtrates were diluted for HPLC analysis and final pH was measured. The solid residue of each sample was collected for XRPD analysis.
The solubilities of Form B in water and five different pH values at 25° C. were determined by HPLC after 24 h equilibration. Solubility data for Form B was obtained across the physiological pH by using buffer solutions from pH 2 to pH 10.
Preparation of pH Buffers • pH 2: 0.01N HCl solution. Dilute 1 ml of 1 N HCl with H2O up to a total volume of 100 ml. Measure the pH and precisely adjust to pH=2.00 using a few microliters of 1N HCl or 1N NaOH. • pH 4: 50 mM Na citrate buffer. Prepare a 50 mM citric acid solution by diluting 10 ml of 1N citric acid with H2O up to a total volume of 200 ml. Slowly add solid NaOH under stirring to increase the pH to 3.8-4.0 and use a few microliters of 1N NaOH for final adjustment to pH 4.00. • pH 6: 50 mM Na citrate buffer. Use the same procedure as the pH 4 buffer and adjust to pH=6.00 • pH 8: 50 mM Na phosphate buffer. Prepare a 50 mM NaH2PO4 solution by dissolving 6.00 g NaH2PO4 in 1 L of H2O and a 50 mM Na2HPO4 solution by dissolving 7.10 g in 1 L of H2O. Mix 10 ml of the NaH2PO4 solution with 140 ml of the Na2HPO4 solution in a beaker. Adjust to pH 8.00 by addition of small amounts of 50 mM NaH2PO4 or Na2HPO4 solution. • pH 10: 50 mM Na carbonate buffer. Prepare a 50 mM carbonate solution by dissolving 840 mg of sodium bicarbonate (NaHCO3) in about 180 ml of H2O. Slowly adjust the pH to 10.0±0.1 by addition of 1N NaOH. Add water to reach the total volume of 200 ml and adjust to pH 10.00 with 1N NaOH.

[4] = 0.01N HCl Dark, Vis Stability (1.2 Mil lux-hours)
[5] = 0.01N HCl Dark, Vis-UV Stability (1.2 Mil lux-hours + 200 Watt-hours/m^2)
[6] = 0.01N HCl Light, Vis Stability (1.2 Mil lux-hours)
[7] = 0.01N HCl Light, Vis-UV Stability (1.2 Mil lux-hours + 200 Watt-hours/m^2)
[8] = 0.01N NaOH Dark, Vis Stability (1.2 Mil lux-hours)
[9] = 0.01N NaOH Dark, Vis-UV Stability (1.2 Mil lux-hours + 200 Watt-hours/m^2)
[10] = 0.01N NaOH Light, Vis Stability (1.2 Mil lux-hours), precipitation observed
[11] = 0.01N NaOH Light, Vis-UV Stability (1.2 Mil lux-hours + 200 Watt-hours/m^2), precipitation observed
[12] = H2O Dark, Vis Stability (1.2 Mil lux-hours)
[13] = H2O Dark, Vis-UV Stability (1.2 Mil lux-hours + 200 Watt-hours/m^2)
[14] = H2O Light, Vis Stability (1.2 Mil lux-hours)
[15] = H2O Light, Vis-UV Stability (1.2 Mil lux-hours + 200 Watt-hours/m^2)
[16] = 0.01N HCl, pH (initial) 2.0, RT, 24 h
[17] = 50 mM Na carbonate buffer, pH (initial) 10.0, RT, 24 h
[18] = 50 mM Na phosphate buffer, pH (initial) 8.0, RT, 24 h
[19] = 50 mM sodium citrate, pH (initial) 4.0, RT, 24 h
[20] = 50 mM sodium citrate, pH (initial) 6.0, RT, 24 h

Question: What does the source list for CC(C)N(C[C@H]1O[C@@H](n2cnc3c(N)ncnc32)[C@H](O)[C@@H]1O)[C@H]1C[C@@H](CCc2nc3cc(C(C)(C)C)ccc3[nH]2)C1 [Form B, (2R,3R,4S,5R)-2-(6-amino-9H-purin-9-yl)-5-((((1r,3S)-3-(2-(5-(tert-butyl)-1H-benzo[d]imidazol-2-yl)ethyl)cyclobutyl)(isopropyl)amino)methyl)tetrahydrofuran-3,4-diol trihydrate]?
Answer: Remaining Solid ([1]; Acetone): Form B; Remaining Solid ([1]; Acetonitrile): Form B; Remaining Solid ([1]; Ethanol): No solid obtained; Remaining Solid ([1]; Isopropanol): No solid obtained; solubility (in words) ([1]; MeOH, EtOH, and IPA): quite soluble; Remaining Solid ([1]; Methanol): No solid obtained; solubility at 24 h ([1]; Acetone): 23900 µg/mL; solubility at 24 h ([1]; Acetonitrile): 1500 µg/mL; solubility at 24 h ([1]; Ethanol): > 87000 µg/mL; solubility at 24 h ([1]; Isopropanol): > 129000 µg/mL; solubility at 24 h ([1]; Methanol): > 200000 µg/mL; % area (Solution photostability; [4]): 99.4%; % claim (Solution photostability; [4]): 100.0%; Final pH (Solution photostability; [4]): 2.1; % area (Solution photostability; [5]): 99.9%; % claim (Solution photostability; [5]): 100.0%; Final pH (Solution photostability; [5]): 2.1; % area (Solution photostability; [6]): 98.5%; % claim (Solution photostability; [6]): 98.8%; Final pH (Solution photostability; [6]): 2.1; % area (Solution photostability; [7]): 99.9%; % claim (Solution photostability; [7]): 99.9%; Final pH (Solution photostability; [7]): 2.1; % area (Solution photostability; [8]): 99.7%; % claim (Solution photostability; [8]): 100.0%; Final pH (Solution photostability; [8]): 11.6; % area (Solution photostability; [9]): 100.0%; % claim (Solution photostability; [9]): 100.0%; Final pH (Solution photostability; [9]): 11.7; Final pH (Solution photostability; 0.01N NaOH Light, Vis Stability (1.2 Mil lux-hours)): 11.7; % area (Solution photostability; [10]): 99.6%; % claim (Solution photostability; [10]): 44.5%; Final pH (Solution photostability; 0.01N NaOH Light, Vis-UV Stability (1.2 Mil lux-hours + 200 Watt-hours/m^2)): 11.7; % area (Solution photostability; [11]): 99.3%; % claim (Solution photostability; [11]): 66.3%; % area (Solution photostability; [12]): 100.0%; % claim (Solution photostability; [12]): 100.0%; Final pH (Solution photostability; [12]): 7.7; % area (Solution photostability; [13]): 100.0%; % claim (Solution photostability; [13]): 100.0%; Final pH (Solution photostability; [13]): 8.1; % area (Solution photostability; [14]): 99.6%; % claim (Solution photostability; [14]): 98.5%; Final pH (Solution photostability; [14]): 7.3; % area (Solution photostability; [15]): 99.3%; % claim (Solution photostability; [15]): 94.7%; Final pH (Solution photostability; [15]): 7.3; observation in solution photostability study (Solution photostability; all solutions in 0.01N NaOH): Precipitation was observed; solution photostability (in words) (Solution photostability; in water and 0.01N HCl solution, UV/Vis exposure): stable upon exposure to UV/Vis; water activity at which Form B is thermodynamically more stable than Form A ([2]; 50° C.): ≥ 0.08; water activity at which Form B is thermodynamically more stable than Form A ([2]; RT): ≥ 0.09; solubility at 24 h ([3]; 0.01N HCl solution, pH 2, simulated gastric fluid, 0.01N HCl, pH (initial) 2.0, RT, 24 h): 3400 µg/mL; pH (final) [3, 16]: 5.5; Remaining Solid [3, 16]: Form B; pH (final) [3, 17]: 10.0; Remaining Solid [3, 17]: Form B; Solubility ([3]; 50 mM Na carbonate buffer, pH (initial) 10.0, RT, 24 h, LOD 0.1 μg/ml): <LOD^; pH (final) [3, 18]: 8.0; Remaining Solid [3, 18]: Form B; Solubility ([3]; 50 mM Na phosphate buffer, pH (initial) 8.0, RT, 24 h, LOD 0.1 μg/ml): <LOD^§; solubility at 24 h ([3]; 50 mM sodium citrate buffer, pH 4, aqueous buffer, 50 mM sodium citrate, pH (initial) 4.0, RT, 24 h): 9800 µg/mL; solubility at 24 h ([3]; 50 mM sodium citrate buffer, pH 6, aqueous buffer, 50 mM sodium citrate, pH (initial) 6.0, RT, 24 h): 80 µg/mL; pH (final) [3, 19]: 5.4; Remaining Solid [3, 19]: Form B; Solubility ([3]; 50 mM sodium citrate, pH (initial) 4.0, RT, 24 h, trihydrate): 9700 µg/mL; pH (final) [3, 20]: 6.0; Remaining Solid [3, 20]: Form B; pH (final) ([3]; Water (unbuffered), RT, 24 h): 5.6; Remaining Solid ([3]; Water (unbuffered), RT, 24 h): Form B; solubility at 24 h ([3]; unbuffered water, water, RT): 1.2 µg/mL; solubility at 24 h ([3]; unbuffered water, water, Water (unbuffered), RT, 24 h): 1.2 µg/mL
